Measured values reported in patent EP4800016A1, “METTL3 INHIBITOR” (Hangzhou Bangshun Pharmaceutical Co., Ltd., priority 2023, dated 2025).

Experiments:
[1] = Rat pharmacokinetic test, intravenous injection; format: in vivo; settings: male, SD, plasma, rats, 2 mg/kg, average of 3 rats
Protocol: 3.1 Experimental Animals: Male SD rats, weighing 190-230 g, 3 rats per compound 3.2 Experimental Design: All animals were fasted overnight (10-14 hours) the day before admin istration and fed 4 hours after admin istration. For intravenous injection, the drug vehicle was 5% DMA + 5% Solutol + 90% Saline (DMA: dimethylacetamide; Solutol: polyethyleneglycol-15-hydroxystearate; Saline: normal saline), with a dosage of 2 mg/kg and an admin istration concentration of 1 mg/mL. Blood samples were collected via the jugular vein at 5 min, 15 min, 30 min, 1 h, 2 h, 4 h, 6 h, 8 h, and 24 h after admin istration. Approximately 0.25 mL of each sample was collected, anticoagulated with EDTA-K2, placed on ice after collection, and centrifuged to separate plasma within 1 hour (6000 g, 3 min, 2-8°C). Plasma samples were stored in a - 80°Crefrigerator before analys is.
3.3 Result Analys is:Collected samples were detected using LC-MS/MS method. Pharmacokinetic parameters were calculated from blood drug concentration data at different time points using Phoenix WinNonlin 8.2.0 to obtain the average values of in vivo clearance (CL) and AUC0-t. Table 3 CL and AUC of test compounds after intravenous injection in rats

Kasumi-1 cells = test: Kasumi-1 cell inhibitory activity (CellTiter-Glo, 5 days); format: cell-based; settings: Homo sapiens, 120 h, 5 days incubation, CellTiter-Glo luminescence
Protocol: Test compounds were dissolved in DMSO to prep are a 250×final concentration solution. The initial concentration was 10 µM with 3-fold dilution, resulting in a total of ten concentration points. 4 µL of the compound solution was added to 96 µL of cell culture medium to dilute it to 10×the final concentration. On the first day, Kasumi-1 cells (purchased from Precedo) were suspended in cell culture medium at the desired density, 90 µL of the cell suspension was added to a 96-well plate, and 10 µL of 10×compound solution was added for incubation, with a final DMSO concentration of 0.4% in each well. Incubated at 37 °C, 5% CO2 for 5 days. Before measurement after 5 days, the test plate was placed at room temperature, 50 µL of CellTiter-Glo® reagent (purchased from Promega, Cat. No. G7573) was added, mixed on a shaker for 2 minutes to lyse the cells, and incubated at room temperature for 10 minutes to stabilize the […] signal. Luminescence values were recorded using Paradigm, and the response-concentration curve was fitted with Graphpad Pr ism 8.0 to calculate IC50values. The results of each compound are shown in Table2, where A indicates <100nM, B indicates 100-1000nM, and C indicates >1000nM. [formula]

METTL3/14 = molecular target: T1, METTL3/14 (Homo sapiens, UniProt Q86U44); test: METTL3/14 methyltransferase activity assay (HTRF); format: biochemical; settings: 10 concentrations, 3-fold dilution from 10 µM
T1 construct: purchased active motif 31570
T1 sequence (Q86U44 whole entry): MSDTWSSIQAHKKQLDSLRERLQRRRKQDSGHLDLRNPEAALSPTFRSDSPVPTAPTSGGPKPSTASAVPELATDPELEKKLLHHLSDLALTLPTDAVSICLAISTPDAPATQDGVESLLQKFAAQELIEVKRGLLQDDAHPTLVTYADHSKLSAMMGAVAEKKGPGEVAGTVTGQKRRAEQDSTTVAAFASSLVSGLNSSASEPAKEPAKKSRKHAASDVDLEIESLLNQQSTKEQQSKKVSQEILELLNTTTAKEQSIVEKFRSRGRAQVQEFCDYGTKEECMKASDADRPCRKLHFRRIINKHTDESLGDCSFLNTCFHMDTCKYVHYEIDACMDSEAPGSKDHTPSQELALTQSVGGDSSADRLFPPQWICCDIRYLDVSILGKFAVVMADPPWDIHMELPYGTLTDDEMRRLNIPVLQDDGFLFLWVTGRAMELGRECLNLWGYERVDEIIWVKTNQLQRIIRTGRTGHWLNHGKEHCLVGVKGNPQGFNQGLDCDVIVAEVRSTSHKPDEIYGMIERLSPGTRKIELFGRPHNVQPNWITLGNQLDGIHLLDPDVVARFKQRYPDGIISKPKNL
T1 sequence (Q9HCE5 whole entry partner): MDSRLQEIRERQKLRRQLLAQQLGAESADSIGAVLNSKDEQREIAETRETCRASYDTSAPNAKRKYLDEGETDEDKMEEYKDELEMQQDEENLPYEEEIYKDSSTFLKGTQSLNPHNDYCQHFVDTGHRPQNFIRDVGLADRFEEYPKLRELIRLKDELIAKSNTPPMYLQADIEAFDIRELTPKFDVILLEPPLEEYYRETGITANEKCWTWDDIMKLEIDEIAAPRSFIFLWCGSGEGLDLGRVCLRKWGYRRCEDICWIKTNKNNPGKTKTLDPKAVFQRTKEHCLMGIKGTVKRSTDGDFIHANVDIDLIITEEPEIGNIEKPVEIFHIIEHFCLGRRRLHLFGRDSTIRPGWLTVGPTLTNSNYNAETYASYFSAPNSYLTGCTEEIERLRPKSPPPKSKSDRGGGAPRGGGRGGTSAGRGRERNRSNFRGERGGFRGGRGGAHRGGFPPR
How it was run: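 METTL3/14 preincubated with compound (10-point 3-fold series from 10 µM final top) 10 min at 25°C, then biotinylated substrate plus SAM for 60 min. Methylation read by HTRF with YTHDF1, streptavidin-Tb and anti-Flag acceptor after 60 min at 25°C.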

Row | SMILES | AUC(0-t) [1] [ng·h/mL] | clearance [1] [mL/min/kg] | IC50 (Kasumi-1 cells) [nM] | IC50 (METTL3/14) [nM]
1 | O=C(NCc1ccc2cc(CNCC3CC(F)(F)C3)[nH]c2c1)c1cc(=O)n2cc3c(cc2n1)OCCO3 [Example 24, N-((2-((((3,3-Difluorocyclobutyl)methyl)amino)methyl)-1H-indol-6-yl)methyl)-9-oxo-2,3-dihydro-9H-[1,4]dioxino[2',3':4,5]pyrido[1,2-a]pyrimidine-7-carboxamide] | 2180 | 15.3 | 100 to 1000 | < 10
2 | O=C(NCc1ccc2cc(CNCC3CCC3)[nH]c2c1)c1cc(=O)n2cc3c(cc2n1)OCO3 [Example 25, N-((2-(((Cyclobutylmethyl)amino)methyl)-1H-indol-6-yl)methyl)-8-oxo-8H-[1,3]dioxolo[4',5':4,5]pyrido[1,2-a]pyrimidine-6-carboxamide] | 1460 | 22.7 | 100 to 1000 | < 10
3 | O=C(NCc1cc2[nH]c(CNCC3CCC3)cc2cc1F)c1cc(=O)n2cc3c(cc2n1)OCO3 [Example 73, N-((2-(((Cyclobutylmethyl)amino)methyl)-5-fluoro-1H-indol-6-yl)methyl)-8-oxo-8H-[1,3]dioxolo[4',5':4,5]pyrido[1,2-a]pyrimidine-6-carboxamide] | 1440 | 23 | 100 to 1000 | < 10
4 | O=C(NCc1cc2[nH]c(CNCC34CC(CO3)C4)cc2cc1F)c1cc(=O)n2cc3c(cc2n1)OCO3 [Example 87, N-((2-((((2-Oxabicyclo[2.1.1]hexan-1-yl)methyl)amino)methyl)-5-fluoro-1H-indol-6-yl)methyl)-8-oxo-8H-[1,3]dioxolo[2',3':4,5]pyrido[1,2-a]pyrimidine-6-carboxamide] |  |  | 100 to 1000 | 10 to 100
5 | [2H]C([2H])(NCc1cc2cc(F)c(CNC(=O)c3cc(=O)n4cc5c(cc4n3)OCCO5)cc2[nH]1)C1CCC1 [Example 90, N-((2-(((Cyclobutylmethyl-d2)amino)methyl)-5-fluoro-1H-indol-6-yl)methyl)-9-oxo-2,3-dihydro-9H-[1,4]dioxino[2',3':4,5]pyrido[1,2-a]pyrimidine-7-carboxamide] |  |  | < 100 | < 10
6 | [2H]C([2H])(NCc1cc2ccc(CNC(=O)c3cc(=O)n4cc5c(cc4n3)OCCO5)cc2[nH]1)C12CC(CO1)C2 [Example 91, N-((2-((((2-Oxabicyclo[2.1.1]hexan-1-yl)methyl-d2)amino)methyl)-1H-indol-6-yl)methyl)-9-oxo-2,3-dihydro-9H-[1,4]dioxino[2',3':4,5]pyrido[1,2-a]pyrimidine-7-carboxamide] |  |  | 100 to 1000 | 10 to 100
7 | [2H]C([2H])(NCc1cc2ccc(CNC(=O)c3cc(=O)n4cc5c(cc4n3)OCO5)cc2[nH]1)C12CC(CO1)C2 [Example 92, N-((2-((((2-Oxabicyclo[2.1.1]hexan-1-yl)methyl-d2)amino)methyl)-1H-indol-6-yl)methyl)-8-oxo-8H-[1,3]dioxolo[4',5':4,5]pyrido[1,2-a]pyrimidine-6-carboxamide] |  |  | 100 to 1000 | 10 to 100
8 | [2H]C([2H])(NCc1cc2cc(F)c(CNC(=O)c3cc(=O)n4cc5c(cc4n3)OCO5)cc2[nH]1)C12CC(CO1)C2 [Example 93, N-((2-((((2-Oxabicyclo[2.1.1]hexan-1-yl)methyl-d2)amino)methyl)-5-fluoro-1H-indol-6-yl)methyl)-8-oxo-8H-[1,3]dioxolo[4',5':4,5]pyrido[1,2-a]pyrimidine-6-carboxamide] |  |  | 100 to 1000 | 10 to 100
9 | [2H]C([2H])(NCc1cc2ccc(CNC(=O)c3cc(=O)n4cc5c(cc4n3)OCCO5)cc2[nH]1)C12CC(F)(C1)C2 [Example 95, N-((2-((((3-fluorobicyclo[1.1.1]pentan-1-yl)methyl-d2)amino)methyl)-1H-indol-6-yl)methyl)-9-oxo-2,3-dihydro-9H-[1,4]dioxino[2',3':4,5]pyrido[1,2-a]pyrimidine-7-carboxamide] |  |  | < 100 | < 10
